This passage reports ED50 and Percent inhibition results from patent US3934024A, “Method of producing analgesia and compositions useful therein” (Sharps Associates, priority 1975, dated 1976).

One may read the ED50 as the dose that gives a 50% effect, or the effect in half of the subjects.

For one test, the system named is rat. The experiment in a line: rat tail flick test for analgesic activity. In kind it is in vivo. Particulars: oral, 95% C.L. = 0.9 - 4.8. An excerpt:
In the rat tail flick test for analgesic activity [D'Amour and Smith, J. Pharmacol. Exper. Therap.
For orientation: Hot-plate and tail-flick tests time the reaction to a heat stimulus.

For the next test, the system named is mice. The experiment in a line: Acetic acid writhing test in mice (oral). It is filed as in vivo. To be noted: for Percent inhibition: acetic acid writhing, writhes counted for 20 minutes beginning 5 minutes after acid injection. The procedure:
The analgesic activity of the compound was evaluated in an acetic acid writhing test. The acetic acid writhing test used was modified from that described by Whittle, Brit J. Pharmacol., 22, 296 (1964). The number of writhes were counted for a 20 minute period beginning 5 minutes after the injection of the acid. Analgetic potency was calculated from the difference between the test groups and their controls.
Acetic acid writhing test in mice (oral)

With `CCCCCC(C)C(C)c1cc(O)c2c(c1)OC(C)(C)C1=C2CCCS1` (stereo not drawn) [Compound I, 1,2-dihydro-5,5-dimethyl-10-hydroxy-8-(3-methyl-2-octyl)-3H,5H-thiopyrano[2,3-c][1]benzopyran], the ED50 in the test with rat came to 2.7 mg/kg; in the test with mice (Mus musculus, oral, 95% C.L. = 9.2 - 12.4) it was 10.8 mg/kg. The Percent inhibition in the test on mice (5 mg/kg p.o.) was determined as 20.7%; in the test on mice (10 mg/kg p.o.) it was 48.9%; in the test on mice (20 mg/kg p.o.), 74.0%; with mice (40 mg/kg p.o.) it was 95.6%.
